{"source": "patent US20230212208A1", "about": "“Colour Tunable Luminescent Bidentate Platinum (II) Complexes for Probing Mismatch DNA” (THE UNIVERSITY OF HONG KONG, priority 2019, published 2023)", "key": {"[1]": {"system": "AA hairpin mismatched DNA (SEQ ID NO: 7)", "conditions": "20 μM in Tris buffer, λex=410 nm, AA hairpin mismatch", "description": "(§1) The emission increased around 3-fold for CA (SEQ ID NO: 5) and TC hairpin mismatched DNA (SEQ ID NO: 6), and 2-fold for AA hairpin mismatched DNA (SEQ ID NO: 7) (FIG. 5A)."}, "[2]": {"system": "TC hairpin mismatched DNA (SEQ ID NO: 6)", "conditions": "20 μM in Tris buffer, λex=410 nm, TC hairpin mismatch", "description": "as §1"}, "[3]": {"system": "CA hairpin mismatched DNA (SEQ ID NO: 5)", "conditions": "20 μM in Tris buffer, λex=410 nm, CA hairpin mismatch", "description": "as §1"}, "[4]": {"system": "hairpin CC mismatched DNA with different adjacent base pairs", "conditions": "Pt(II) complex to DNA ratio 1.0", "description": "Especially, the 5′- . . . […] GCA . . . -3′ (SEQ ID NO: 24), 5′- . . . GCC . . . -3′ (SEQ ID NO: 25), GCG . . . -3′ (SEQ ID NO: 26) and 5′- . . ."}, "[5]": {"system": "cognate matched DNA (CG match, SEQ ID NO: 3)", "conditions": "20 μM in Tris buffer pH 7.1, 1-fold matched DNA", "method": "The emission spectra for detection of CC mismatched DNA and matched DNA were determined (FIGS. 2A and 2B)."}}, "note": "Read-outs that look alike come from different tables or passages of the source."}
{"substance": "Pt(II)(benzo[h]quinolone-1-benzyl-3-butylimidazolium bromide [PtCN2]", "values": [{"measurement": "emission increase at high-energy fingerprint spectrum", "setting": "[1]", "result": "~2", "unit": "fold"}, {"measurement": "emission increase at high-energy fingerprint spectrum", "setting": "[2]", "result": "around 3 fold"}, {"measurement": "emission increase at high-energy fingerprint spectrum", "setting": "[3]", "result": "around 3 fold"}, {"measurement": "emission intensity at 497 nm over matched DNA", "setting": "[4]; CC mismatch 5'-ACC-3' (SEQ ID NO: 17) vs matched DNA", "result": 5, "unit": "fold"}, {"measurement": "emission intensity at 497 nm over matched DNA", "setting": "[4]; CC mismatch 5'-GCA-3' (SEQ ID NO: 24) vs matched DNA", "result": 5, "unit": "fold"}, {"measurement": "emission intensity at 497 nm over matched DNA", "setting": "[4]; CC mismatch 5'-GCC-3' (SEQ ID NO: 25) vs matched DNA", "result": 5, "unit": "fold"}, {"measurement": "emission intensity at 497 nm over matched DNA", "setting": "[4]; CC mismatch 5'-GCG-3' (SEQ ID NO: 26) vs matched DNA", "result": 5, "unit": "fold"}, {"measurement": "emission response at 497 nm, higher than matched DNA", "setting": "[4]; CC mismatch 5'-GCT-3' (SEQ ID NO: 27) vs matched DNA (SEQ ID NO: 32)", "result": 6, "unit": "fold"}, {"measurement": "emission enhancement at high-energy emission", "setting": "[5]", "result": "no significant emission enhancement"}]}
